Measured values from patent US12239655B2, “Combined modalities for nucleosides and/or NADPH oxidase (NOX) inhibitors as myeloid-specific antiviral agents” (Emory University, priority 2017, dated 2025).
Each block holds one compound with its values, some of them ahead of it.

Tests used:
[1] = Cellular toxicity assay in macrophages; format: cell-based, human; conditions: human
[2] = Cellular toxicity assay in PBM cells; format: cell-based; conditions: human
Procedure: (§1) The toxicity of the compounds was assessed in Vero, human PBM, CEM (human lymphoblastoid), MT-2, and HepG2 cells, as described previously (see Schinazi R. F., Sommadossi J.-P., Saalmann V., Cannon D. L., Xie M.-Y., Hart G. C., Smith G. A. & Hahn E. F. Antimicrob. Agents Chemother. 1990, 34, 1061-67). Cycloheximide was included as positive cytotoxic control, and untreated cells exposed to solvent were included as negative controls. The cytotoxicity IC50 was obtained from the concentration-response curve using the median effective method described previously (see Chou T.-C. & Talalay P. Adv. Enzyme Regul. 1984, 22, 27-55; Belen'kii M. S. & Schinazi R. F. Antiviral Res. 1994, 25, 1-11).

[3] = Cellular toxicity assay in CEM cells; format: cell-based; conditions: human
Procedure: as §1

[4] = Cellular toxicity assay in Vero cells; format: cell-based; conditions: African green monkey
Procedure: as §1

[5] = Cellular toxicity assay in Huh7 cells; format: cell-based; conditions: human
[6] = test system: HIV; assay: HIV assay in macrophages; format: cell-based; conditions: for EC90 / EC50: Human immunodeficiency virus 1, Macrophage, Table 5 (Example 8); for Antiviral Potency Macrophages - EC50/90: EC50 / Antiviral Potency Macrophages - EC50/90: EC90: Table 5A
Procedure: (§2) PBM cells or macrophages were incubated with various concentrations of antiviral agents for 6 days PBM cells) or […] (macrophages), followed by harvest of supernatants and quantification of extracellular HIV using the RT assay or p24 assays as previously described (Gavegnano and Schinazi et al, 2012, AAC). AZT (positive control), no drug controls, or virus alone were also performed in each assay. Assays were performed in 8 independent experiments. The Chou and Tallalay method was used to calculate the effective inhibitory concentration 50/90 as previously described (Gavegnano and Schinazi et al, 2012, AAC).

[7] = test system: HIV; assay: HIV assay in PBM cells; format: cell-based
Procedure: as §2

[8] = Bone marrow cytotoxicity, GM lineage (CFU-GM); format: cell-based, human; conditions: human, Table 8A, first value of the cell, read-out: Cytotoxicity: MTT IC50, Bone Marrow (GM Lineage)
Procedure: (§3) Primary human bone marrow mononuclear cells can be obtained commercially from Cambrex Bioscience (Walkersville, MD). CFU-GM assays is carried out using a bilayer soft agar in the presence of 50 units/mL human recombinant granulocyte/macrophage colony-stimulating factor, while BFU-E assays used a […] matrix containing 1 unit/mL erythropoietin (see Sommadossi J P, Carlisle R. Toxicity of 3′-azido-3′-deoxythymidine and 9-(1,3-dihydroxy-2-propoxymethyl) guanine for normal human hepatopoietic progenitor cells in vitro. Antimicrob. Agents Chemother. 1987; 31: 452-454; Sommadossi, JP, Schinazi, RF, Chu, C K, and Xie, M Y. Comparison of cytotoxicity of the (−) and (+) enantiomer of 2′,3′-dideoxy-3′-thiacytidine in normal human bone marrow progenitor cells. Biochem. Pharmacol. 1992; 44:1921-1925). Each experiment can be performed in duplicate in cells from three different donors. AZT is used as a positive control. […] The 50% inhibitory concentration (IC50) can be obtained by least-squares linear regression analysis of the logarithm of drug concentration versus BFU-E survival fractions. Statistical analysis can be performed with Student's t test for independent non-paired samples.

[9] = Bone marrow cytotoxicity, erythroid lineage (BFU-E); format: cell-based, human; conditions: human; Table 8A; first value of the cell; read-out: Cytotoxicity: MTT IC50, Bone Marrow (Erythroid Lineage)
Procedure: as §3

[10] = test system: Macrophages; assay: Cellular toxicity assay in macrophages; format: cell-based, human; conditions: Table 8A; slash not defined, head says IC50
[11] = test system: Bone Marrow (GM Lineage); assay: Bone marrow cytotoxicity, GM lineage (CFU-GM); format: cell-based, human; conditions: Table 8A; slash not defined, head says IC50
Procedure: as §3

[12] = test system: Bone Marrow (Erythroid Lineage); assay: Bone marrow cytotoxicity, erythroid lineage (BFU-E); format: cell-based, human; conditions: Table 8A; slash not defined, head says IC50
Procedure: as §3

[13] = Table 8A, first value of the cell, read-out: Cytotoxicity: MTT IC50, Macrophages
[14] = Table 8A, MTT, read-out: Cytotoxicity: MTT IC50, PBM
[15] = Table 8A, MTT, read-out: Cytotoxicity: MTT IC50, CEM
[16] = Table 8A, MTT, read-out: Cytotoxicity: MTT IC50, Vero
[17] = Table 8A, MTT, read-out: Cytotoxicity: MTT IC50, Huh7
[18] = Human immunodeficiency virus 1, PBMC, 144 h, Table 5 (Example 8), HIV in PBM cells, 6 days, read-out: PBM Cells EC50
[19] = macrophages, Table 8, read-out: Cytotoxicity IC50, Macrophages
[20] = PBM cells, Table 8, read-out: Cytotoxicity IC50, PBM
[21] = CEM lymphoblastoid cells, Table 8, read-out: Cytotoxicity IC50, CEM
[22] = Vero cells, Table 8, read-out: Cytotoxicity IC50, Vero
[23] = macrophages, Table 8A, first value of the cell, read-out: Cytotoxicity: MTT IC50, Macrophages
[24] = PBM cells, Table 8A, MTT, read-out: Cytotoxicity: MTT IC50, PBM
[25] = CEM lymphoblastoid cells, Table 8A, MTT, read-out: Cytotoxicity: MTT IC50, CEM
[26] = Vero cells, Table 8A, MTT, read-out: Cytotoxicity: MTT IC50, Vero
[27] = Huh7 cells, Table 8A, MTT, read-out: Cytotoxicity: MTT IC50, Huh7
[28] = primary bone marrow mononuclear cells, GM lineage (CFU-GM)
[29] = Human immunodeficiency virus 1, PBMC, Table 5A, HIV in PBM cells, read-out: Antiviral Potency PBM Cells - EC50/90: EC50
[30] = Table 5A, HIV in PBM cells, read-out: Antiviral Potency PBM Cells - EC50/90: EC50

Structure (SMILES): C[C@@H]1C[C@@H]([C@H](O)CC2CC(=O)NC(=O)C2)C(=O)[C@@H](C)C1
- IC50 [1, 13]: 6.9 ± 0.9 µM
- IC50 [2, 14]: 2.5 µM
- IC50 [3, 15]: 0.06 µM
- IC50 [4, 16]: 0.7 µM
- IC50 [5, 17]: 0.9 µM

- EC90 [6]: 0.01 nM
Structure (SMILES): C#C[C@]1(CO)O[C@@H](n2cnc3c(N)nc(F)nc32)CC1O (some centres unmarked)

- EC90 ([7]; Human immunodeficiency virus 1, PBMC, 144 h, Table 5 (Example 8), HIV in PBM cells, 6 days): 19.1 µM
- EC50 [7, 18]: 3.2 µM
- EC50 [6]: 0.001 µM
- EC90 [6]: 20 nM
Structure (SMILES): C#C[C@]1(CO)O[C@@H](n2cnc3c(N)nc(F)nc32)C(O)C1O (some centres unmarked)

Structure (SMILES): C#C[C@]1(CO)O[C@@H](n2cnc3c(N)nc(F)nc32)C[C@@H]1O [drawing 60]
- IC50 [1, 19]: 2.4 µM
- IC50 [2, 20]: 1.1 µM
- IC50 [3, 21]: 6.8 µM
- IC50 [4, 22]: ≥ 100 µM

Structure (SMILES): C#C[C@]1(CO)O[C@@H](n2cnc3c(N)nc(F)nc32)[C@H](O)[C@@H]1O [drawing 61]
- IC50 [1, 19]: 0.7 µM
- IC50 [2, 20]: 3.2 µM
- IC50 [3, 21]: 52 µM
- IC50 [4, 22]: > 100 µM

Structure (SMILES): CN(C)c1cccc(-c2c3c(=O)n(-c4ccccc4Cl)[nH]c3cc(=O)n2C)c1 [drawing 62]
- IC50 [1, 19]: > 10 µM
- IC50 [2, 20]: > 100 µM

Structure (SMILES): CC(=O)c1ccc2c(c1)Nc1ccccc1S2 [drawing 63]
- IC50 [1, 19]: > 10 µM
- IC50 [2, 20]: > 100 µM

Structure (SMILES): COc1ccc(NC(=O)Nc2ccc(N)cc2)cc1 [drawing 64]
- IC50 [1, 19]: > 10 µM
- IC50 [2, 20]: > 100 µM

Structure (SMILES): C#C[C@]1(CO)O[C@@H](n2ccc(=O)[nH]c2=O)[C@H](O)[C@@H]1O [drawing 65]
- IC50 [1, 23]: > 100 µM
- IC50 [2, 24]: > 100 µM
- IC50 [3, 25]: > 100 µM
- IC50 [4, 26]: > 100 µM
- IC50 [5, 27]: > 100 µM
- IC50 [8, 28]: > 100 µM
- IC50 [9]: > 100 µM

Structure (SMILES): C#C[C@]1(COP(=O)(N[C@@H](C)C(=O)OC(C)C)Oc2ccccc2)O[C@@H](n2ccc(=O)[nH]c2=O)[C@H](O)[C@@H]1O (some centres unmarked) [drawing 66]
- IC50 [1, 13]: > 100 µM
- IC50 [2, 14]: > 100 µM
- IC50 [3, 15]: > 100 µM
- IC50 [4, 16]: > 100 µM
- IC50 [5, 17]: > 100 µM
- IC50 [8]: > 100 µM
- IC50 [9]: > 100 µM

Structure (SMILES): C#C[C@]1(CO)O[C@@H](n2cnc3c(N)nc(F)nc32)C[C@@H]1O [drawing 67]
- IC50 [1, 23]: 21 µM
- Macrophages, second value after the slash [10]: 9.2 µM
- IC50 [2, 24]: 2.9 µM
- IC50 [3, 25]: 1.7 µM
- IC50 [4, 26]: 3.2 µM
- IC50 [8, 28]: 1.9 µM
- Bone Marrow (GM Lineage), second value after the slash [11]: 22.4 µM
- IC50 [9]: 2.4 µM
- Bone Marrow (Erythroid Lineage), second value after the slash [12]: 8.6 µM

Structure (SMILES): C#C[C@]1(CO)O[C@@H](n2cnc3c(N)nc(F)nc32)[C@H](O)[C@@H]1O [drawing 68]
- IC50 [1, 23]: 3.2 ± 0.3 µM
- IC50 [2, 24]: 2.2 µM
- IC50 [3, 25]: 1.9 µM
- IC50 [4, 26]: 12.9 µM
- IC50 [5, 27]: 11.4 µM
- IC50 [8, 28]: 0.4 µM
- Bone Marrow (GM Lineage), second value after the slash [11]: 12.7 µM
- IC50 [9]: 0.7 µM
- Bone Marrow (Erythroid Lineage), second value after the slash [12]: 5.4 µM

Structure (SMILES): O=c1c2cc(F)ccc2sn1-c1ccc2c(c1)OCO2 [drawing 70]
- IC50 ([2]; PBM cells, Table 8B, MTS (head line), read-out: Cytotoxicity: IC50, PBM): 58.3 ± 10.9 µM
- IC50 ([3]; CEM lymphoblastoid cells, Table 8B, MTT (head line), read-out: Cytotoxicity: IC50, CEM): 3.7 µM
- IC50 ([4]; Vero cells, Table 8B, MTT (head line), read-out: Cytotoxicity: IC50, Vero): 20.1 µM
- IC50 ([5]; Huh7 cells, Table 8B, MTT/MTS (head line), read-out: Cytotoxicity: IC50, Huh7): 379 ± 19.2 µM

- EC50 [7, 18]: > 100 µM
- EC50 [6]: 0.03 µM
- EC90 [6]: 300 nM
Structure (SMILES): CN(C)c1cccc(-c2c3c(=O)n(-c4ccccc4Cl)[nH]c3cc(=O)n2C)c1 [drawing 73]

- EC50 [7, 18]: > 100 µM
- EC50 [6]: 0.02 µM
- EC90 [6]: 200 nM
Structure (SMILES): CC(=O)c1ccc2c(c1)Nc1ccccc1S2 [drawing 74]

- EC50 [7, 18]: > 100 µM
- EC50 [6]: 0.001 µM
- EC90 [6]: 100 nM
Structure (SMILES): COc1ccc(NC(=O)Nc2ccc(N)cc2)cc1 [drawing 75]

- EC50 [7, 29]: > 10 µM
- Antiviral Potency Macrophages - EC50/90: EC50 [6]: 16600 ± 3200 nM
- Antiviral Potency Macrophages - EC50/90: EC90 [6]: > 100000 nM
Structure (SMILES): C#C[C@]1(CO)O[C@@H](n2ccc(=O)[nH]c2=O)[C@H](O)[C@@H]1O [drawing 76]

Structure (SMILES): C#C[C@]1(COP(=O)(N[C@@H](C)C(=O)OC(C)C)Oc2ccccc2)O[C@@H](n2ccc(=O)[nH]c2=O)[C@H](O)[C@@H]1O (some centres unmarked) [drawing 77]
- EC50 ([7]; Human immunodeficiency virus 1, PBMC, read-out: Antiviral Potency PBM Cells - EC50/90: EC50): > 10 µM
- Antiviral Potency Macrophages - EC50/90: EC50 [6]: 0.1 ± 6 nM
- Antiviral Potency Macrophages - EC50/90: EC90 [6]: 9 ± 7 nM

- Antiviral Potency PBM Cells - EC50/90: EC90 ([7]; Table 5A, HIV in PBM cells): 0.0000001 µM
- EC50 [7, 30]: 0.000000001 µM
- Antiviral Potency Macrophages - EC50/90: EC50 [6]: 3e-05 nM
- Antiviral Potency Macrophages - EC50/90: EC90 [6]: 7e-06 nM
Structure (SMILES): C#C[C@]1(CO)O[C@@H](n2cnc3c(N)nc(F)nc32)C[C@@H]1O [drawing 78]

- EC50 [7, 29]: 1.8 µM
- Antiviral Potency Macrophages - EC50/90: EC50 [6]: 1 ± 2 nM
- Antiviral Potency Macrophages - EC50/90: EC90 [6]: 20 ± 10 nM
Structure (SMILES): C#C[C@]1(CO)O[C@@H](n2cnc3c(N)nc(F)nc32)[C@H](O)[C@@H]1O [drawing 79]

- Antiviral Potency PBM Cells - EC50/90: EC90 ([7]; Table 5A, HIV in PBM cells): 12.9 µM
- EC50 [7, 30]: 0.7 µM
- Antiviral Potency Macrophages - EC50/90: EC50 [6]: 9 nM
- Antiviral Potency Macrophages - EC50/90: EC90 [6]: 300 nM
Structure (SMILES): O=c1c2cc(F)ccc2sn1-c1ccc2c(c1)OCO2 [drawing 81]
